From paper PMC3776131 (Bioorganic & medicinal chemistry letters, 2013)
Read-outs that look alike come from different tables or passages of the source. Where a SMILES comes first, the peptide text is derived from it. [ ]: non-standard residue; d: D form. Dmt = Cc1cc(O)cc(C)c1C[C@H](N)C(=O)O; Tic = O=C(O)[C@@H]1Cc2ccccc2CN1

Experiments:
κ opioid receptor = κ opioid receptor (Cavia porcellus, UniProt P41144); details: read-out: Ki^κ; [3H]U69,593, guinea pig brain membranes; cited from earlier work
κ opioid receptor, sequence (P41144 whole entry): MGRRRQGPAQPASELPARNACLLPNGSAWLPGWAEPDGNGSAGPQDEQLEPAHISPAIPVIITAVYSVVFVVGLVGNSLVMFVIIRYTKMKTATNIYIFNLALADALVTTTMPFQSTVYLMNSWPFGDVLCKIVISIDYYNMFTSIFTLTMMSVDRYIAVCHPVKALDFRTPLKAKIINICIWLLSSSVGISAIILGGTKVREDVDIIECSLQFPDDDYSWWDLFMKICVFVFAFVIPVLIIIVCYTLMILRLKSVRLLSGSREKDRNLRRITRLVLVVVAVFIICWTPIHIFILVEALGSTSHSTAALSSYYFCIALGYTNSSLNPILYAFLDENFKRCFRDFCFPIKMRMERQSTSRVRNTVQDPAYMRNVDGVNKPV

μ opioid receptors [1] = target: T1, μ opioid receptors (Rattus norvegicus, UniProt P33535); details: read-out: Ki^μ; [3H]DAMGO, rat brain membranes; cited from earlier work
T1 sequence (P33535 whole entry): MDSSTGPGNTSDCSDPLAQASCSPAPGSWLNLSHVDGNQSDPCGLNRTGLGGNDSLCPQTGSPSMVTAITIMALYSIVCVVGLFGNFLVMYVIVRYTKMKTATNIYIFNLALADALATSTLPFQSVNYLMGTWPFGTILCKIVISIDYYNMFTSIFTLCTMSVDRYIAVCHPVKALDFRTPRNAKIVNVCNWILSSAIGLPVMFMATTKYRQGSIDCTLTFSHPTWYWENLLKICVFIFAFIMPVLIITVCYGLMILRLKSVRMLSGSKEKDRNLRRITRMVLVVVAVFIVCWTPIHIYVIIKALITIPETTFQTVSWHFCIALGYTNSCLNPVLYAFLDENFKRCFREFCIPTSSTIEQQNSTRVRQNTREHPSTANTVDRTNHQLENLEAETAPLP

μ and κ receptor [2] = details: cited from earlier work
μ opioid receptors [3] = target: T1, μ opioid receptors; experiment: μ opioid receptor binding, displacement of [3H]DAMGO from rat brain membranes; details: relative to 4a
μ and κ receptor [4] = experiment: guinea pig ileum
δ receptor [5] = target: T2, δ receptor (Mus musculus, UniProt P32300); experiment: mouse vas deferens
T2 sequence (P32300 whole entry): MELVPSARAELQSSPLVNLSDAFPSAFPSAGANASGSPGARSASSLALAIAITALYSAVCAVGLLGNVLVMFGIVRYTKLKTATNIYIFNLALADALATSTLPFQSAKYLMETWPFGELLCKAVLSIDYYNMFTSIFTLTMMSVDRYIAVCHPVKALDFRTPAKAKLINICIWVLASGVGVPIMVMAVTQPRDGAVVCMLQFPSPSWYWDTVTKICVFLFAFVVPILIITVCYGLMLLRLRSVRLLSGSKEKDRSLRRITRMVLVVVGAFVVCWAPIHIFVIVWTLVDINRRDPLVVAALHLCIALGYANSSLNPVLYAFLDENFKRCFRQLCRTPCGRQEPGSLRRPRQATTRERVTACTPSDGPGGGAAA

δ receptor [6] = target: T2, δ receptor; details: cited from earlier work
[7] = given i.c.v.; cited from earlier work
[8] = cited from earlier work

Row | Molecule | GPI IC50 (agonist potency) (μ and κ receptor [2]) | MVD Ke (δ antagonist activity) (δ receptor [6]) | type of activity in the MVD assay (δ receptor [6]) | other results
1 | H-[Dmt]-[Tic]-OH [Compound 8a] | Inactive | – | – | Ki (κ opioid receptor): > 1000 nM; Ki (μ opioid receptors [1]): 1360 ± 160 nM
2 | Cc1cc(O)cc(C)c1C[C@H](N)C(=O)N1Cc2ccccc2C[C@H]1C(=O)N[C@@H](CCCCN)C(=O)N[C@@H](Cc1ccccc1)C(N)=O [Compound 6a, H-Dmt-Tic-Lys-Phe-NH2] (HELM PEPTIDE1{[Cc1cc(O)cc(C)c1C[C@H](N)C(=O)[*:2]].[Tic].K.F.[am]}$$$$V2.0) | – | – | – | fold lower μ receptor affinity than 4a (μ opioid receptors [3]): 16 fold; type of activity in the GPI assay (μ and κ receptor [4]): μ agonist; Kb (δ receptor [5]): 2.18 ± 0.3 nM; type of activity in the MVD assay (δ receptor [5]): δ antagonist
3 | H-[Dmt][Tic]FF-NH2 [Compound 4a] | – | 0.209 ± 0.037 nM | – | –
4 | H-[Dmt][Tic]FF-OH [Compound 2a] | inactive | 0.196 ± 0.008 nM | potent δ antagonists | –
5 | H-Dmt-Ticψ[CH2NH]Phe-Phe-NH2 [Compound 5a] | – | 0.537 ± 0.026 nM | – | analgesic effect in the rat tail flick test [7]: potent analgesic effect; IC50 (μ and κ receptor [2]; read-out: GPI IC50 (agonist potency)): 7.71 ± 0.31 nM; physical dependence upon chronic administration [8]: no physical dependence; analgesic tolerance upon chronic administration ([8]; compared with morphine): less analgesic tolerance than morphine
6 | H-Tyr-Ticψ[CH2NH]Phe-Phe-OH [Compound 3a] | inactive | – | potent δ antagonists | –
7 | H-Y[Tic]FF-OH [Compound 1a] | inactive | – | potent δ antagonists | –
